Entries after “also recorded” stand apart in the source; their conditions may differ.
Columns and labels:
[1] = biological target: T1, NK1R (NK1) (Homo sapiens, UniProt P25103); assay: Calcium imaging of cells transfected with the GPCR (Table 1); type: cell-based; details: FIG. 6a: SP 5 nM, inhibitors 1 μM
T1 construct: host or cells: HeLa cells, pcDNA3.1(-)
Experimental: Human NK1 cDNA was obtained from LIFE Technologies, PCR cloned with Xho I-Hind III ends and cloned into pcDNA3.1(−). Mouse NK2 and NK3 expression-ready vectors were obtained from […] (Piscataway, N.J.). All other Mrgprs (human MRGPRX1, human MRGPRX2, human MRGPRX3, human MRGPRX4, mouse MrgprA2a, mouse MrgprA2b, mouse MrgprA3, mouse MrgprA4, mouse MrgprA9, mouse MrgprA10, mouse MrgprB4 and mouse MrgprB5) were cloned by PCR from genomic DNAs and inserted into pcDNA3.1 (−).
10 μg of expression vector (human MRGPRX2, mouse MrgprA1 or NK1) and 10 μl of LIPOFECTAMINE 2000 transfection reagent were diluted into 0.5 ml of DMEM and separately left at room temperature (RT) for 5 min. They were then mixed and incubated at RT for 20 minutes prior to being added to HeLa cells. HeLa cells were grown to confluence, trypsinized and 1×10^6 cells were pelleted in a 15 ml tube by centrifugation at 1000 rpm for 5 minutes. […]
Calcium imaging was performed immediately after loading cells with Fura-2, using a ZEISS Axiovert 200M microscope platform equipped with a flipping filter wheel for ratiometric imaging. […] The software later analyzed all images taken during each excitation period. Ratiometric changes were measured in 10-20 cells in each individual experiment. An average of the fluorescence of the cells in each image was calculated and plotted against time in seconds.

[2] = test system: WT DRGs; assay: DRG culture and calcium imaging, WT mice; type: cell-based, mouse
Experimental: Cervical to lumbar dorsal root ganglia (DRG) from C57/B6 or NK1 mice (1 month old) were dissected and maintained in DMEM (GIBCO, Langley, Okla., USA), containing […] L-glutamine (FISHER […], Pittsburgh, Pa., USA), 10% heat inactivated fetal bovine serum (GIBCO, Langley, Okla., USA), 5000 U/ml penicillin and 5000 μg/ml streptomycin (FISHER […], Pittsburgh, Pa., USA). Enzymatic digestion was carried out with 1 mg collagenase in 1 ml dispase (ROCHE Applied Sciences, IN, USA), at 37° C. for 70 min. The collagenase/dispase solution was removed, and DRGs were washed and suspended in DMEM containing 125 U DNAse (SIGMA, St Louis, USA) within which the ganglia were mechanically triturated using fire-polished glass pipettes. […] Cells were evaluated using a NIKON Eclipse Ti inverted microscope equipped with an Exi Aqua CCD camera (QIMAGING, British Columbia, Canada). Ca^2+ flux fluorescence was measured as an […] ratio at 340 nm and 380 nm (F340/380) (Lambda DG4, Sutter Instruments, Novato, Calif., US). The 340/380 ratiometric images were analyzed using NIKON Elements AR Software (NIKON, Melville, N.Y. USA). […]

[3] = test system: human LAD2 mast cells; assay: Human LAD2 mast cell degranulation assay (β-hexosaminidase release); type: cell-based; details: LAD2 cells preincubated with 100 μM QWF for 10 min
Experimental: The human LAD2 mast cell line (from D. Metcalfe, National Institute of Allergy and Infectious Diseases, NIH, Bethesda, Md.) was cultured in StemPro-34 SFM medium (LIFE TECHNOLOGIES) supplemented with 2 mM L-glutamine, 100 U/ml penicillin, 100 μg/ml streptomycin, and 100 ng/ml recombinant human stem cell factor (PEPROTECH). The cells were maintained at 0.25-5×10^5 cells/ml at 37° C. and 5% CO2 and hemi-depleted each week.
Degranulation was measured as described previously (36). In brief, LAD2 cells were preincubated with 100 μM QWF for 10 min before activation by agonists at indicated concentrations for 30 min. The level of mast cell degranulation was assessed by the release of β-hexosaminidase in mast cell granules, quantified by the level of its substrate p-nitrophenyl N-acetyl-β-D-glucosamide (PNAG) digested in a colorimetric assay.

T1 sequence (P25103 whole entry): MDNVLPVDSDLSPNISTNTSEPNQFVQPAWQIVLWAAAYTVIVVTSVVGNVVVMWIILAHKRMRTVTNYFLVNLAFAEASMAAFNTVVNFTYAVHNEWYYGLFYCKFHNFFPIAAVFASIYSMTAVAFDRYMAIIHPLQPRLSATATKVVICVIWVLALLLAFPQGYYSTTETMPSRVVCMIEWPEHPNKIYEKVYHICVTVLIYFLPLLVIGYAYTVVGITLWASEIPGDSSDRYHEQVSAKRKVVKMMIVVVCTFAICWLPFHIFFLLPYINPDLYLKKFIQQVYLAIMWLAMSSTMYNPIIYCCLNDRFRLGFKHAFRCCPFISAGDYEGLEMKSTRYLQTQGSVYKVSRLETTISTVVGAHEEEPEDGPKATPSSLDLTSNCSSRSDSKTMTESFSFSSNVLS

- inhibition of NK1 (activation by SP) [1]: inhibit; also recorded: blocks
Substance: Boc-Gln-D-Trp(Formyl)-Phe benzyl ester trifluoroacetate [QWF]
- decrease of the response of WT DRGs to compound 48/80 [2]: significantly decreases
- inhibition of degranulation induced by SP [3]: significantly inhibits
- inhibition of degranulation induced by atracurium [3]: significantly inhibits
- inhibition of degranulation induced by ciprofloxacin [3]: significantly inhibits
- inhibition of degranulation induced by compound 48/80 [3]: significantly inhibits
